The text below walks through data of ChEMBL document CHEMBL1153021, “Phenylphenalenones from the Australian plant Haemodorum simplex” (J Nat Prod, 2009).

The subject of one assay is P388. As to the kind of experiment: Cytotoxicity against mouse P388 cells after 72 hrs by MTT assay. The class given is functional, cell-based. Particulars: P388, 72 h. For orientation: Tetrazolium assays rely on reduction of a dye to a coloured formazan, in cell work by metabolically active cells.
Another assay concerns Bacillus subtilis. Nature of the assay: Antibacterial activity against Bacillus subtilis ATCC 19659 at 30 ug. The class given is functional. Particulars: read-out: IZ.
Assay [1] relates to Trichophyton mentagrophytes. As to the kind of experiment: Antifungal activity against Trichophyton mentagrophytes ATCC 28185 at 100 IU. Format: functional, organism-based.
The next assay concerns Amorphotheca resinae. As to the kind of experiment: Antifungal activity against Cladosporium resinae at 100 IU. Format: functional, organism-based.

For orientation: IC50 means the concentration needed to halve the response being measured. Low values mean greater potency in that assay, high ones weaker potency in that assay. `COc1c(O)cc2c3c(ccc(-c4ccc(O)cc4)c13)C(=O)OC2=O` [HAEMODOROL] yielded an IC50 with P388 greater than 26 µM. The same measure, in the same setting: the same measure for `COc1cc2c3c(ccc(-c4ccccc4)c3c1OC)C(=O)OC2=O`: greater than 26 µM; for `COC1=Cc2cc(OC)c(O)c3c(-c4ccccc4)ccc(c23)C1=O` [XIPHIDONE]: greater than 26 µM.

Molecule `COc1cc2c3c(ccc(-c4ccccc4)c3c1O[C@@H]1O[C@H](CO)[C@@H](O)[C@H](O)[C@H]1O)C(=O)OC2` [HAEMODOROSE] displayed an IC50 in the assay with P388 greater than 26 µM. As to `O=C(N[C@H](CO)[C@H](O)c1ccc([N+](=O)[O-])cc1)C(Cl)Cl` [CHLORAMPHENICOL], the zone of inhibition at 30 µg/disc with Bacillus subtilis turned out to be 12 mm. Regarding NYSTATIN, the inhibition zone (IZ) turned out to be 6 mm in assay [1] and 10 mm in the assay on Amorphotheca resinae. `COC1=Cc2cc(O)c(O[C@@H]3O[C@H](CO)[C@@H](O)[C@H](O)[C@H]3O)c3c(-c4ccccc4)ccc(c23)C1=O` [DILATRIN] yielded an IC50 in the assay with P388 greater than 26 µM. In turn, `COc1c(O)cc2c3c(ccc(-c4ccccc4)c13)C(=O)OC2=O` [HAEMODORONE] registered an IC50 in the assay with P388 greater than 26 µM.
